In ChEMBL document CHEMBL4007384, “Synthesis and optimization of furano[3,2-d]pyrimidines as selective spleen tyrosine kinase (Syk) inhibitors” (Bioorg Med Chem Lett, 2016):
≈ marks a conversion by molar mass, not a printed value. Values belong to the compound of their own block, whether it stands above or below them.

Columns and labels:
[1] = target: Serine/threonine-protein kinase 16 (Homo sapiens, UniProt O75716); assay: Inhibition of STK16 (unknown origin) after 60 mins by TR-FRET assay
[2] = Solubility in pH 5 FeSSIF at 0.2 mg sonicated for 10 mins followed by incubation for 2 days by HPLC analysis; assay type: physicochemical
[3] = target: T1, Dual specificity protein kinase TTK (Homo sapiens, UniProt P33981); assay: Inhibition of TTK (unknown origin) after 60 mins by TR-FRET assay
T1 sequence (P33981 whole entry): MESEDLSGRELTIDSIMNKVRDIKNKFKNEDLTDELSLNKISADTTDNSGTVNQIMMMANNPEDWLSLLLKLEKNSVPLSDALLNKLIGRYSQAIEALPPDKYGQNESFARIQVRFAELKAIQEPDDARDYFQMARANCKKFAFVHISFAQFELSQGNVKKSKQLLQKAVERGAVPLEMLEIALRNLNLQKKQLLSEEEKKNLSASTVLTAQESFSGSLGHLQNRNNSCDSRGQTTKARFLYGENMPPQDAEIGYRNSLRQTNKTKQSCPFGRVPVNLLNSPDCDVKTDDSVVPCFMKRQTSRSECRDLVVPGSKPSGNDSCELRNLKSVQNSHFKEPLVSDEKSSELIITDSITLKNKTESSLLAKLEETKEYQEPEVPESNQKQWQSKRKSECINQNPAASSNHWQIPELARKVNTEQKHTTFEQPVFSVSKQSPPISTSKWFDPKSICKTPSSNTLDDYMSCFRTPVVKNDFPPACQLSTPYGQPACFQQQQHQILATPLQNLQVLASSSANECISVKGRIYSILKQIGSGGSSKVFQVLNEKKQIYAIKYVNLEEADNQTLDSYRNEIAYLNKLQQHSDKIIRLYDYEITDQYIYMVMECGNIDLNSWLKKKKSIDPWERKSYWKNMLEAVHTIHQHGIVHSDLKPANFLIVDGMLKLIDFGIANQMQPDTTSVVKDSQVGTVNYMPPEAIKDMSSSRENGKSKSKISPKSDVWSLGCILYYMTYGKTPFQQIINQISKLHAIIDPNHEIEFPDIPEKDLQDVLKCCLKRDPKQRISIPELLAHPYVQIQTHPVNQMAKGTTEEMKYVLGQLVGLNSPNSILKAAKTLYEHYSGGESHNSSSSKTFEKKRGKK

CYP3A4 = CYP3A4 (Homo sapiens, UniProt P08684); assay: Inhibition of CYP3A4 in human liver microsomes assessed as residual activity at 10 uM measured after 30 mins relative to control; assay type: ADME; conditions: read-out: Activity
Cytochrome P450 3A4 = Cytochrome P450 3A4 (Homo sapiens, UniProt P08684); assay: Time-dependent inhibition of CYP3A4 in human liver microsomes at 10 to 50 uM; assay type: ADME
[4] = target: Epithelial discoidin domain-containing receptor 1 (Homo sapiens, UniProt Q08345); assay: Inhibition of DDR1 (unknown origin) after 60 mins by TR-FRET assay
[5] = target: Calcium/calmodulin-dependent protein kinase kinase 2 (Homo sapiens, UniProt Q96RR4); assay: Inhibition of CAMKK2 (unknown origin) after 60 mins by TR-FRET assay
[6] = target: Serine/threonine-protein kinase Sgk1 (Homo sapiens, UniProt O00141); assay: Inhibition of SGK1 (unknown origin) after 60 mins by TR-FRET assay
[7] = Unbound clearance in human microsomes; assay type: ADME, Microsome
[8] = target: Mitogen-activated protein kinase kinase kinase 10 (Homo sapiens, UniProt Q02779); assay: Inhibition of MAP3K10 (unknown origin) after 60 mins by TR-FRET assay
[9] = target: Dual specificity mitogen-activated protein kinase kinase 3 (Homo sapiens, UniProt P46734); assay: Inhibition of MAP2K3 (unknown origin) after 60 mins by TR-FRET assay
[10] = target: Protein kinase C zeta type (Homo sapiens, UniProt Q05513); assay: Inhibition of PKCzeta (unknown origin) after 60 mins by TR-FRET assay
[11] = target: Cyclin-dependent kinase 2 (Homo sapiens, UniProt P24941); assay: Inhibition of CDK2 (unknown origin) after 60 mins by TR-FRET assay
[12] = target: Proto-oncogene tyrosine-protein kinase Src (Homo sapiens, UniProt P12931); assay: Inhibition of SRC (unknown origin) after 60 mins by TR-FRET assay
[13] = Inhibition of CDK11 (unknown origin) after 60 mins by TR-FRET assay; set-up: species or system Homo sapiens
[14] = target: RAC-alpha serine/threonine-protein kinase (Homo sapiens, UniProt P31749); assay: Inhibition of AKT (unknown origin) after 60 mins by TR-FRET assay
[15] = target: Tyrosine-protein kinase ABL1 (Homo sapiens, UniProt P00519); assay: Inhibition of ABL (unknown origin) after 60 mins by TR-FRET assay
[16] = target: cGMP-dependent protein kinase 1 (Homo sapiens, UniProt Q13976); assay: Inhibition of PKG1A (unknown origin) after 60 mins by TR-FRET assay
[17] = target: Serine/threonine-protein kinase B-raf (Homo sapiens, UniProt P15056); assay: Inhibition of BRAF (unknown origin) after 60 mins by TR-FRET assay
[18] = target: Epidermal growth factor receptor (Homo sapiens, UniProt P00533); assay: Inhibition of EGFR (unknown origin) after 60 mins by TR-FRET assay
[19] = target: Serine/threonine-protein kinase pim-2 (Homo sapiens, UniProt Q9P1W9); assay: Inhibition of PIM2 (unknown origin) after 60 mins by TR-FRET assay
[20] = target: Tyrosine-protein kinase SYK (Homo sapiens, UniProt P43405)
Description: Inhibition of C-terminal His-tagged Syk catalytic domain (356 to 635 residues) (unknown origin) using biotin-TYR1 as substrate after 60 mins by TR-FRET assay

CYP3A4, sequence (P08684 whole entry): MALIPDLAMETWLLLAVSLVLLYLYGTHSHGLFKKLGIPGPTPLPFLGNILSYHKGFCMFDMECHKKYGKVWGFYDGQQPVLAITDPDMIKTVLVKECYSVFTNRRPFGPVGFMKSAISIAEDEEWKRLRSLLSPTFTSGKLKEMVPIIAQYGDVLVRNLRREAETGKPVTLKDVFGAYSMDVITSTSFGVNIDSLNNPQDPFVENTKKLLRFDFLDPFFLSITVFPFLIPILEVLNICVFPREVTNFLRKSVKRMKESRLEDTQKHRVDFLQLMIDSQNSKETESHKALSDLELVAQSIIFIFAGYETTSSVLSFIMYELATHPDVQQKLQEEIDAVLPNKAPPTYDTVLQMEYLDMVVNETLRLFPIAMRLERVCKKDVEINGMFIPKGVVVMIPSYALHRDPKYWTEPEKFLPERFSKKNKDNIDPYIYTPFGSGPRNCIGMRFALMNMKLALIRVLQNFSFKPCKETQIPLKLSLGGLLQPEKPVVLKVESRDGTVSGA
Serine/threonine-protein kinase 16, sequence (O75716 whole entry): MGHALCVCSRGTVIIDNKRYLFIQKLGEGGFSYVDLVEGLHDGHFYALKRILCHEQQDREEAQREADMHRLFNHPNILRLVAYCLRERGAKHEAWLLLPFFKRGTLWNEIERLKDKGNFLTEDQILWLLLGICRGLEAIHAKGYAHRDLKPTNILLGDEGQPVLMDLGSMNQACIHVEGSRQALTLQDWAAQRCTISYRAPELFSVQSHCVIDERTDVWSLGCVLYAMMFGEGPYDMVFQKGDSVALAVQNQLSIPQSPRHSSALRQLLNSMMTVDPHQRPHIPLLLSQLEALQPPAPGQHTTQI
Tyrosine-protein kinase ABL1, sequence (P00519 whole entry): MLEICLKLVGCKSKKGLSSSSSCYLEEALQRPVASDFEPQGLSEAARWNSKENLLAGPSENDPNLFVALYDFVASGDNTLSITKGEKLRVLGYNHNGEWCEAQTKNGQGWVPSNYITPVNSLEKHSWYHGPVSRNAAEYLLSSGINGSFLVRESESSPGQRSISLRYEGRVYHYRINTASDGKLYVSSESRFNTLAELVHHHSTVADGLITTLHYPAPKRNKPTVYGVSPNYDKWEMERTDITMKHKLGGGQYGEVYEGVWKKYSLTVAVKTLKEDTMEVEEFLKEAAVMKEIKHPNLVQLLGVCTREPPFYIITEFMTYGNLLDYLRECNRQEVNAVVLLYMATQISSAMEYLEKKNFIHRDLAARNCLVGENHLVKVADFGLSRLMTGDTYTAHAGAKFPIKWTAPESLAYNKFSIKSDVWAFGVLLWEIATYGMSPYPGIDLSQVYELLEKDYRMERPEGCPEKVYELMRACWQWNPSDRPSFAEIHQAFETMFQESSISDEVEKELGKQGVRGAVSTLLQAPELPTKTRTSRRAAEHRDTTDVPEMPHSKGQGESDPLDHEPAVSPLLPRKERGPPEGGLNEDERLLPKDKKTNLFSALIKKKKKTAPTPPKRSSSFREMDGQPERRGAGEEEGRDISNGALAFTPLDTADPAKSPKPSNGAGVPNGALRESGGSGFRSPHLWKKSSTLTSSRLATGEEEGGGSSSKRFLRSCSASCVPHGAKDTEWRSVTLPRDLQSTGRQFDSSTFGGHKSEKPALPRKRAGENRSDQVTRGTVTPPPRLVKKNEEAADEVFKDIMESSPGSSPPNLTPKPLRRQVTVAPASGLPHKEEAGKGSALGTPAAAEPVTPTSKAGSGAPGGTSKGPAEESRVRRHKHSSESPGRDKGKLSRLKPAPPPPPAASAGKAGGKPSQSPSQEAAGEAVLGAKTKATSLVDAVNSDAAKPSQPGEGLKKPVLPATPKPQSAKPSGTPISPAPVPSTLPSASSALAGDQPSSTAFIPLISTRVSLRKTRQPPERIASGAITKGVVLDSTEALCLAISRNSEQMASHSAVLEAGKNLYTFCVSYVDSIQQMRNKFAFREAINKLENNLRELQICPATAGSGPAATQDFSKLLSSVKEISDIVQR
Serine/threonine-protein kinase B-raf, sequence (P15056 whole entry): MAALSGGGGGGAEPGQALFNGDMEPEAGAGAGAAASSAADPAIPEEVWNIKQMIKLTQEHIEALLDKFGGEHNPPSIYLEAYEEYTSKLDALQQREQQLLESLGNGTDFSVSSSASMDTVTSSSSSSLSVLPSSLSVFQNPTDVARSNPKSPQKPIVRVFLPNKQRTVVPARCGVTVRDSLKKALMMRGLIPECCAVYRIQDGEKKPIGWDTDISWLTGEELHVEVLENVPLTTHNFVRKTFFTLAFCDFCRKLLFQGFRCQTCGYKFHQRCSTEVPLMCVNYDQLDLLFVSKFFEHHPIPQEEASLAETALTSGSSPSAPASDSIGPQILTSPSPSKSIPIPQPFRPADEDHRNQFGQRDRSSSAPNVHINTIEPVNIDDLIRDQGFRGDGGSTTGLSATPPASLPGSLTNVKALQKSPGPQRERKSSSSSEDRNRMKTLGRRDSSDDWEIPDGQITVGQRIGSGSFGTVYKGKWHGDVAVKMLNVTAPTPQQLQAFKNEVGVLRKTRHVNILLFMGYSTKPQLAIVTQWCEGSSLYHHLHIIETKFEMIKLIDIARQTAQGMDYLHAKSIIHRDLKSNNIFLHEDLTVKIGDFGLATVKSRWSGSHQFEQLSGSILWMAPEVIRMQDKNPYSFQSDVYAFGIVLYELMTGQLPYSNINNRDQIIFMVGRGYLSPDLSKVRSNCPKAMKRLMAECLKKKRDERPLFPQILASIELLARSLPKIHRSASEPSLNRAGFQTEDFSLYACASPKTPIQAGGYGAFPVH
Serine/threonine-protein kinase Sgk1, sequence (O00141 whole entry): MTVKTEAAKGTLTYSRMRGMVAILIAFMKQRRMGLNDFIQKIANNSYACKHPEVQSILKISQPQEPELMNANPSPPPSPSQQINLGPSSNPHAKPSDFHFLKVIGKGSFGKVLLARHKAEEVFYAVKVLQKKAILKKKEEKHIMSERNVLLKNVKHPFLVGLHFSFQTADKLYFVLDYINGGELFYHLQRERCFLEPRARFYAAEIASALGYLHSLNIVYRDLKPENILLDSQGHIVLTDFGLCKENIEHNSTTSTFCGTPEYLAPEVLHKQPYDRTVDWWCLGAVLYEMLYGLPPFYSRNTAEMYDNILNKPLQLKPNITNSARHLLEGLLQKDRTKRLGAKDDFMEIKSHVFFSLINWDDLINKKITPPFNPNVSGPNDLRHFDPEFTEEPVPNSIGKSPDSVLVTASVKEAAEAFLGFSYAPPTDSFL
Epidermal growth factor receptor, sequence (P00533 whole entry): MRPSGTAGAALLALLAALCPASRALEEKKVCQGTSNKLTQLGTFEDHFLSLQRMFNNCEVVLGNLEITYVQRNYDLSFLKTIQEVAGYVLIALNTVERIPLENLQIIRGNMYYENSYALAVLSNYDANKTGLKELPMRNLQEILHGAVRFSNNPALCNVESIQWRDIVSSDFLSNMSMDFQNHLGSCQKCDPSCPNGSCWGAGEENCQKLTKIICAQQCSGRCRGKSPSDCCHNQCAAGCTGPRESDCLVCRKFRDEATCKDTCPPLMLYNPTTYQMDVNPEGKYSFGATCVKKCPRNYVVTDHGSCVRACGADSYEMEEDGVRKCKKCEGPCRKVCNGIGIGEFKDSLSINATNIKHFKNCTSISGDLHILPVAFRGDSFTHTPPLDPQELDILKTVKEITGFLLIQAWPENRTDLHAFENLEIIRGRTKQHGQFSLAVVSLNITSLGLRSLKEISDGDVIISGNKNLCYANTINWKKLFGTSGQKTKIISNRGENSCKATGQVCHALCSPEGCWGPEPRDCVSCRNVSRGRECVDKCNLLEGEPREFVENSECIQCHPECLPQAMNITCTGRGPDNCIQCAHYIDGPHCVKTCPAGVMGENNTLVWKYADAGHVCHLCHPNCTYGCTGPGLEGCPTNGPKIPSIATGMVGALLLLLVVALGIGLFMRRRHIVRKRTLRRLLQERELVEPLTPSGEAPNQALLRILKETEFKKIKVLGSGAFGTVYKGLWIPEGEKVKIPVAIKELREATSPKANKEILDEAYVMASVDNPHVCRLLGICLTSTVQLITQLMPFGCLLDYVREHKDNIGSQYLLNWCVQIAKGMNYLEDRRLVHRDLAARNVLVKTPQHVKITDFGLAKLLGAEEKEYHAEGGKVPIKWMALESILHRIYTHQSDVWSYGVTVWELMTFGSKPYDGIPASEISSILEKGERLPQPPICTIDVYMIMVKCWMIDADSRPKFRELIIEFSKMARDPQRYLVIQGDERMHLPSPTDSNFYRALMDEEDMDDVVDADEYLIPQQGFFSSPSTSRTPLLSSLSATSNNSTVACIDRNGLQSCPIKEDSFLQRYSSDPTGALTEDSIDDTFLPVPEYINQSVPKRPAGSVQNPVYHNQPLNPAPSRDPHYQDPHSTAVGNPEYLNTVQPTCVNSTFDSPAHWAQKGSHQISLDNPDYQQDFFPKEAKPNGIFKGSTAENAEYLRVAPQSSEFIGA
Cytochrome P450 3A4, sequence (P08684 whole entry, the tested form may be a part): as the sequence (P08684 whole entry) above
Dual specificity mitogen-activated protein kinase kinase 3, sequence (P46734 whole entry): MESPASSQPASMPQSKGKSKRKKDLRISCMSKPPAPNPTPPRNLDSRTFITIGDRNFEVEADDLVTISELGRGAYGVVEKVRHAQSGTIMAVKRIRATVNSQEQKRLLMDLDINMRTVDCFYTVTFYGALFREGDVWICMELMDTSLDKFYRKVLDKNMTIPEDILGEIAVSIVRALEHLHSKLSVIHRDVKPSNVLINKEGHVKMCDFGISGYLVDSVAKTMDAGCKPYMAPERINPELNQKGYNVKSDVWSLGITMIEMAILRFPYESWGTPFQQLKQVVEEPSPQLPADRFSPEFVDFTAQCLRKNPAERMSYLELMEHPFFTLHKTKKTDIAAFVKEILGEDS
Serine/threonine-protein kinase pim-2, sequence (Q9P1W9 whole entry): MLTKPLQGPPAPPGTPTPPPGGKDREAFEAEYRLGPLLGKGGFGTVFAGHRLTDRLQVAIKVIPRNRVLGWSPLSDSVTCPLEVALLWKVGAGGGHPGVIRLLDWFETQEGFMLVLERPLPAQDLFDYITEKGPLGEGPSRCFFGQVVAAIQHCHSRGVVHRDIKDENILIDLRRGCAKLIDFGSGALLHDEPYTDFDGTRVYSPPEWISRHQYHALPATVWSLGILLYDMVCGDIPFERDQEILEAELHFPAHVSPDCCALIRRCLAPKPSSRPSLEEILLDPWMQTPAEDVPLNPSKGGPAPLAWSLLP

IC50 [1]: 4.5 µM | solubility at 48 h [2]: 99 µM (≈ 31.7 µg/mL) | IC50 [3]: 2.16 µM | activity at 0.5 h, 10 µM (CYP3A4): 51% | TDI (Cytochrome P450 3A4): Active
Compound: Cc1n[nH]c2cc(Nc3nc(NC4CC4)c4occc4n3)ccc12

IC50 [4]: > 10 µM | IC50 [5]: 1.91 µM | IC50 [6]: > 10 µM | CL free [7]: 170 mL/min/kg | IC50 [8]: 4.55 µM | IC50 [9]: > 10 µM | IC50 [1]: 0.885 µM | IC50 [10]: > 10 µM | IC50 [11]: > 10 µM | solubility at 48 h [2]: 4.96 µM (≈ 2.09 µg/mL) | IC50 [12]: 0.156 µM | IC50 [13]: > 10 µM | IC50 [14]: > 10 µM | IC50 [15]: 0.408 µM | IC50 [16]: > 10 µM | IC50 [17]: > 10 µM | activity at 0.5 h, 10 µM (CYP3A4): 81% | IC50 [18]: > 10 µM | IC50 [19]: > 10 µM
Compound: CC1(C)OCC(=O)Nc2cc(Nc3nc(NCC(F)(F)F)c4occc4n3)ccc21

IC50 [20]: 0.081 µM
Compound: FC(F)(F)CNc1nc(Nc2ccc3cn[nH]c3c2)nc2ccoc12

IC50 [20]: 0.061 µM | IC50 [15]: 2.75 µM | IC50 [3]: 1.84 µM
Compound: FC(F)(F)CNc1nc(Nc2ccc(N3CCOCC3)c(Cl)c2)nc2ccoc12
